# Measured values as given in US8115031B2, “Anti-inflammatory quinic acid derivatives for oral administration” (priority 2007, dated 2012).
# Like-named read-outs stand apart in the source and are kept apart here.
# Tests used:
# [1] = system: Gluconobacter oxydans membrane fraction (quinate dehydrogenase); test: degradation by bacterial enzymes (Gluconobacter oxydans membrane fraction); assay type: in vitro ADME
# Description: FIG. 11 is a graph illustrating the results of an assay to compare stability of analog KZ-41 with that of quinic acid (QA) to degradation by bacterial enzymes. Percentage of drug remaining is shown on the Y-axis and the time exposed to the enzymes is shown on the X-axis. Results for quinic acid are indicated by the diamonds (♦) and results for KZ-41 are indicated by the squares (▪).
# Experiments involving Gluconobacter oxydans were performed as described by Adachi et al. (Adachi, O., et al., (2003) Biosci. Biotechnol. Biochem. 67: 2124-2131). […]
# Samples were evaporated to dryness at 30° C. and reconstituted with […] of 1:1 (v/v) mixture of 0.5% ammonia in water and acetonitrile. […] The spray needle voltage was set at 5,000 V, with the turbo gas temperature set at 400° C., and the declustering potential set at 60 V. For this study, samples were analyzed using a Q1 scan for product ion identification, a product ion scan for characterization of metabolites or enzymatic products and by using multiple-reaction monitoring (MRM) for quantitation of QA. Quantitation was performed using one set of MRM transitions: parent QA ions (MH^−/191)® selective daughter ions m/z 127. […] The peak areas, peak ratios, linear regression, assayed concentrations, and other quantitative analysis calculations were conducted Sciex Analyst 1.4 software. […]
# [2] = levels of compound after oral (PO) or intravenous (IV) administration; assay type: in vivo; conditions: PO vs IV, FIG. 12
# Excerpt: FIG. 12 is a graph illustrating the levels of analog KZ-41 when provided orally (PO) or by intravenous administration (IV).
# Quinic acids are, however, catabolized by enzymes produced by gut bacteria. In rats, less than 10% of an orally-administered dose of quinic acid is recovered. The inventors therefore set out to produce quinic acid derivatives that retain or improve the beneficial effects of quinic acid, while being effective for oral administration. […] The compounds they have synthesized are not catabolized by bacterial enzymes, but are water-soluble, stable at room temperature, and effective for producing anti-inflammatory effects. […] These properties make the compounds attractive options for therapeutic use as anti-inflammatory agents.
# [3] = system: Gluconobacter oxydans membrane fraction (quinate dehydrogenase); conditions: three hours; previous results (Adachi et al. 2003); cited from earlier work
# [4] = rats, oral; cited from earlier work
# [5] = system: leukocyte populations; conditions: doxorubicin-induced leukopenia, rat; cited from earlier work
molecule,measurement,setting,value
"CCCNC(=O)C1(O)CC(O)C(O)C(O)C1 (stereo not drawn) [KZ-41, 1,3,4,5-tetrahydroxy-cyclohexane-carboxylic acid propylamide]",degradation by bacterial enzymes,[1]; enzymes produced by gut bacteria,not degraded
same,"levels of compound, oral compared with intravenous (IV) administration",[2],available for absorption into the circulation
O=C(O)[C@]1(O)C[C@@H](O)[C@@H](O)[C@H](O)C1 [quinic acid],depletion of QA by G. oxydans membrane fraction,[3],complete depletion
same,degradation by bacterial enzymes,[1],degraded by enzymes produced by bacteria in the intestines
same,orally-administered dose recovered,[4],less than 10%
"Neupogen: a granulocyte colony stimulator commonly used to treat chemotherapy-induced leukopenia (protein, chains of the INN, looked up) MTPLGPASSLPQSFLLKCLEQVRKIQGDGAALQEKLCATYKLCHPEELVLLGHSLGIPWAPLSSCPSQALQLAGCLSQLHSGLFLYQGLLQALEGISPELGPTLDTLQLDVADFATTIWQQMEELGMAPALQPTQGAMPAFASAFQRRAGGVLVASHLQSFLEVSYRVLRHLAQP",effect on leukocyte populations,[5],increased only the neutrophil fraction
